Assay results taken from patent US4046910A, “Dosage schedule” (The Upjohn Company, priority 1976, dated 1977).
Structures can show the parent of a compound that is named as a salt.

Key:
[1] = test system: rat passive cutaneous anaphylaxis; experiment: rat passive cutaneous anaphylaxis (PCA) test; assay type: in vivo, rat (female Sprague-Dawley); design: key to Spot Score: total detectable spots divided by number of animals; conditions: for % Inhibition in Rat PCA: 48 hour sensitization
From the text: The compound under review is first tested in the rat passive cutaneous anaphylaxis test system. This test is employed to determine if the compound does inhibit allergic manifestations. A DSCG biologue will inhibit allergic manifestations. The anti-allergy activity of DSCG biologues vary.
Female Sprague-Dawley 250 gm. rats are skin-sensitized with rat anti-ovalbumin homocytotropic antibody that is heat labile and has a passive cutaneous anaphylaxis titer of (1:128). After a 72-hour latency period, the animals are challenged i.v. with a 4 mg. ovalbumin (OA) + 5 mg. Evans blue dye. Thirty minutes later the extravascular bluing that results from antigen antibody combination at the skin site is read. Antibody dilutions are used such that in control animals a 4 mm spot in the lowest detectable spot, and 4 or 5 lower dilutions are used to give a range of antibody in each animal. Four to five animals are used for each variable in the experiment. Percent inhibition of the PCA assay is calculated by comparing the spot scores of DSCG treated rats with the spot scores of control rats. The spot score is the total number of detectable spots over the number of animals.
DSCG Priming Treatment: Passively sensitized rats are injected i.v. 2.0 hours before antigen challenge i.v. Two hours after an i.v. priming dose of 10 mg./kg. DSCG, the rats are challenged with antigen alone.
The time course of the effective life of DSCG in rats is shown in Table I. DSCG was administered i.p. and was followed by i.v. challenge with 4 mg. ovalbumin and 5 mg. of Evans Blue. Spot score was calculated 30 minutes later from a total of four animals for each time point.
The animals are rested 2 hours between primary i.v. DSCG injection and i.v. antigen challenge, including secondary DSCG dosing. In view of Table I, this time period is of such a length that the effect from the initial dose of DSCG is not a significant factor.
The effect of a time lag between priming doses and secondary doses with regard to the drug sparing effect and the responsiveness of the treated mammal to further treatment with DSCG or a DSCG biologue is shown in Table III. Rats were injected once daily with 10 mg./kg. DSCG for three days. Control rats were also injected with 1.0 ml. of saline at the same time. Twenty and 48 hours after the last dose of DSCG in the three dose series all rats were injected with DSCG. 4 mg. ovalbumin, and 5 mg. of Evans Blue dye.
Th sparing effect using a DSCG biologue, the tris(hydroxymethyl)aminomethane salt of 10-chloro-1,4,6,9-tetrahydro-4,6-dioxopyrido[3,2-g]quinoline-2,8-dicarboxylic acid, referred to as Compound 10 Cl in this Example, is shown in the rat PCA of Table IV. When using this compound in a priming situation, 2.0 mg./kg., 1.0 mg./kg., 0.025 mg./kg. and 0.01 mg./kg. give inhibitions of 93, 86, 44 and 0% respectively. The data of Table IV are obtained in the usual manner except that a 48 hour instead of a 72 hour sensitization period was used.

[2] = man; cited from earlier work
[3] = test system: allergic and anaphylactic conditions; conditions: cited from earlier work
[4] = test system: allergic manifestations caused by antigen-antibody interaction; conditions: tris(hydroxymethyl)aminomethane salts; U.S. Ser. No. 233,772 and 261,524; cited from earlier work
mediators of anaphylaxis = conditions: cited from earlier work
[5] = 10 mg./kg. i.p., 5 min before i.v. challenge
[6] = 10 mg./kg. i.p., 7 min before i.v. challenge
[7] = 10 mg./kg. i.p., 10 min before i.v. challenge
[8] = 10 mg./kg. i.p., 15 min before i.v. challenge
[9] = 10 mg./kg. i.p., 18 min before i.v. challenge
[10] = 10 mg./kg. i.p., 20 min before i.v. challenge
[11] = 10 mg./kg. i.p., 25 min before i.v. challenge
[12] = 10 mg./kg. i.p., 30 min before i.v. challenge
[13] = 10 mg./kg. i.p., 60 min before i.v. challenge

O=C(O)c1cc(=O)c2c(OCC(O)COc3cccc4oc(C(=O)O)cc(=O)c34)cccc2o1 [DSCG, disodium salt of 1,3-bis(2-carboxychromon-5-yloxy)-2-hydroxypropane]
inhibition given as a priming dose ([1]; 0.1 mg. priming dose): does not provide any inhibition | % Inhibition [1, 5]: 26% | Spot Score [1, 5]: 1.67 | % Inhibition [1, 6]: 26% | Spot Score [1, 6]: 1.67 | % Inhibition [1, 7]: 73% | Spot Score [1, 7]: 0.66 | % Inhibition [1, 8]: 51% | Spot Score [1, 8]: 1.00 | % Inhibition [1, 9]: 44% | Spot Score [1, 9]: 1.25 | % Inhibition [1, 10]: 33% | Spot Score [1, 10]: 1.50 | % Inhibition [1, 11]: 26% | Spot Score [1, 11]: 1.67 | % Inhibition [1, 12]: 11% | Spot Score [1, 12]: 2.0 | % Inhibition [1, 13]: 11% | Spot Score [1, 13]: 2.0 | persistence of inhibiting effect ([1]; 10 mg./kg. i.p., in 30 minutes): most of the inhibiting effect of DSCG has disappeared | inhibitory effect in rat PCA after priming dose alone ([1]; 10 mg./kg. i.v. priming, antigen challenge i.v. 2 hours later): No inhibitory effects are observed | inhibition given as a priming dose ([1]; 10 mg./kg. priming dose): 79% | % Inhibition ([1]; 10 mg./kg., i.v. at challenge): 100% | Spot Score ([1]; 10 mg./kg., i.v. at challenge): 0 | drug sparing effect from the priming dosage ([1]; 20 hours post priming): present at 20 hours post priming | drug sparing effect from the priming dosage ([1]; 48 hours post priming): has disappeared at 48 hours post priming | effect of high priming doses on high secondary doses ([1]; high doses in priming and secondary dose situation): inhibit the action of high doses of DSCG in the secondary dose situation | Inhibition in Rat PCA ([1]; priming 0.1 mg./kg. i.v., secondary DSCG 0.1 mg./kg. with antigen 2 hours later): 2% | Inhibition in Rat PCA ([1]; priming 0.1 mg./kg. i.v., secondary DSCG 1.0 mg./kg. with antigen 2 hours later): 39% | Inhibition in Rat PCA ([1]; priming 0.1 mg./kg. i.v., secondary DSCG 10 mg./kg. with antigen 2 hours later): 79% | Inhibition in Rat PCA ([1]; priming 1.0 mg./kg. i.v., secondary DSCG 0.1 mg./kg. with antigen 2 hours later): 27% | Inhibition in Rat PCA ([1]; priming 1.0 mg./kg. i.v., secondary DSCG 1.0 mg./kg. with antigen 2 hours later): 39% | Inhibition in Rat PCA ([1]; priming 1.0 mg./kg. i.v., secondary DSCG 10 mg./kg. with antigen 2 hours later): 98% | Inhibition in Rat PCA ([1]; priming 10 mg./kg. i.v., secondary DSCG 0.1 mg./kg. with antigen 2 hours later): 39% | Inhibition in Rat PCA ([1]; priming 10 mg./kg. i.v., secondary DSCG 1.0 mg./kg. with antigen 2 hours later): 51% | Inhibition in Rat PCA ([1]; priming 10 mg./kg. i.v., secondary DSCG 10 mg./kg. with antigen 2 hours later, mean percent from 15 animals): 51% | % Inhibition in the Rat PCA ([1]; saline i.v. 3 times, then DSCG dose 0.1): 0% | % Inhibition in the Rat PCA ([1]; saline i.v. 3 times, then DSCG dose 1.0): 11% | % Inhibition in the Rat PCA ([1]; saline i.v. 3 times, then DSCG dose 5.0): 47% | % Inhibition in the Rat PCA ([1]; saline i.v. 3 times, then DSCG dose 10): 82% | % Inhibition in the Rat PCA ([1]; secondary DSCG dose 0, 48 hours after last of three daily 10 mg./kg. DSCG): 0% | % Inhibition in the Rat PCA ([1]; secondary DSCG dose 0.05, 20 hours after last of three daily 10 mg./kg. DSCG): 47% | % Inhibition in the Rat PCA ([1]; secondary DSCG dose 0.05, 48 hours after last of three daily 10 mg./kg. DSCG): 2% | % Inhibition in the Rat PCA ([1]; secondary DSCG dose 0.1, 20 hours after last of three daily 10 mg./kg. DSCG): 52% | % Inhibition in the Rat PCA ([1]; secondary DSCG dose 0.1, 48 hours after last of three daily 10 mg./kg. DSCG): 0% | % Inhibition in the Rat PCA ([1]; secondary DSCG dose 1.0, 20 hours after last of three daily 10 mg./kg. DSCG): 58% | % Inhibition in the Rat PCA ([1]; secondary DSCG dose 5.0, 20 hours after last of three daily 10 mg./kg. DSCG): 20% | % Inhibition in the Rat PCA ([1]; secondary DSCG dose 5.0, 48 hours after last of three daily 10 mg./kg. DSCG): 65% | % Inhibition in the Rat PCA ([1]; secondary DSCG dose 10, 20 hours after last of three daily 10 mg./kg. DSCG): 20% | % Inhibition in the Rat PCA ([1]; secondary DSCG dose 10, 48 hours after last of three daily 10 mg./kg. DSCG): 73% | serum half life [2]: approximately 2 minutes | relief from allergic and anaphylactic conditions ([3]; administered in a prophylactic manner): provides relief from allergic and anaphylactic conditions | inhibition of allergic manifestations on continuing administration ([3]; same dose level, significant number of individuals): lower levels of inhibition which may be clinically ineffective

O=C(O)c1cc(=O)c2cc(-c3ccc4[nH]c(C(=O)O)cc(=O)c4c3)ccc2[nH]1 [tris(hydroxymethyl)aminomethane salt of 1,1',4,4'-tetrahydro-4,4'-dioxo[6,6'-biquinoline]-2,2'-dicarboxylic acid]
ability to prophylactically protect against allergic manifestations [4]: have this ability to prophylactically protect against allergic manifestations

O=C(O)c1cc(=O)c2cc3c(=O)cc(C(=O)O)[nH]c3c(Cl)c2[nH]1 [Compound 10 Cl, tris(hydroxymethyl)aminomethane salt of 10-chloro-1,4,6,9-tetrahydro-4,6-dioxopyrido[3,2-g]quinoline-2,8-dicarboxylic acid]
sparing ([1]; 0.01 mg./kg. maintenance dose, primed with 2.0 or 1.0 mg./kg.): sparing is seen | inhibition in a priming situation ([1]; 0.01 mg./kg. priming): 0% | inhibition in a priming situation ([1]; 0.025 mg./kg. priming): 44% | inhibition in a priming situation ([1]; 1.0 mg./kg. priming): 86% | inhibition in a priming situation ([1]; 2.0 mg./kg. priming): 93% | % Inhibition in Rat PCA ([1]; priming 0.01 mg./kg., secondary 0.01 mg./kg.): 6% | % Inhibition in Rat PCA ([1]; priming 0.01 mg./kg., secondary 0.025 mg./kg.): 44% | % Inhibition in Rat PCA ([1]; priming 0.01 mg./kg., secondary 1.0 mg./kg.): 71% | % Inhibition in Rat PCA ([1]; priming 0.01 mg./kg., secondary 2.0 mg./kg.): 80% | % Inhibition in Rat PCA ([1]; priming 0.025 mg./kg., secondary 0.01 mg./kg.): 6% | % Inhibition in Rat PCA ([1]; priming 0.025 mg./kg., secondary 0.025 mg./kg.): 23% | % Inhibition in Rat PCA ([1]; priming 0.025 mg./kg., secondary 1.0 mg./kg.): 52% | % Inhibition in Rat PCA ([1]; priming 0.025 mg./kg., secondary 2.0 mg./kg.): 62% | % Inhibition in Rat PCA ([1]; priming 1.0 mg./kg., secondary 0.01 mg./kg.): 44% | % Inhibition in Rat PCA ([1]; priming 1.0 mg./kg., secondary 0.025 mg./kg.): 44% | % Inhibition in Rat PCA ([1]; priming 1.0 mg./kg., secondary 1.0 mg./kg.): 44% | % Inhibition in Rat PCA ([1]; priming 1.0 mg./kg., secondary 2.0 mg./kg.): 52% | % Inhibition in Rat PCA ([1]; priming 2.0 mg./kg., secondary 0.01 mg./kg.): 52% | % Inhibition in Rat PCA ([1]; priming 2.0 mg./kg., secondary 0.025 mg./kg.): 33% | % Inhibition in Rat PCA ([1]; priming 2.0 mg./kg., secondary 1.0 mg./kg.): 14% | % Inhibition in Rat PCA ([1]; priming 2.0 mg./kg., secondary 2.0 mg./kg.): 6% | ability to prophylactically protect against allergic manifestations [4]: have this ability to prophylactically protect against allergic manifestations

CCCCC[C@H](O)/C=C/[C@H]1[C@H](O)CC(=O)[C@@H]1CCCCCCC(=O)O [Prostaglandin E1]
response in the DSCG biologue tests (mediators of anaphylaxis): respond appropriately to some of the tests but not all of them

Cc1c2[nH]c(C(=O)O)cc(=O)c2cc2c(=O)cc(C(=O)O)[nH]c12 [1,4,6,9-tetrahydro-10-methyl-4,6-dioxopyrido[3,2-g]quinoline-2,8-dicarboxylic acid]
ability to prophylactically protect against allergic manifestations [4]: have this ability to prophylactically protect against allergic manifestations

CCCCC[C@H](O)/C=C/[C@H]1[C@H](O)CC(=O)[C@@H]1C/C=C\CCCC(=O)O [Prostaglandin E2]
response in the DSCG biologue tests (mediators of anaphylaxis): respond appropriately to some of the tests but not all of them
